According to ChEMBL document CHEMBL1201862, “PubChem BioAssay data set” (2004):
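Five compound concentrations were applied to cells in 96-well plates for 48 hours; endpoints were derived by simple linear interpolation of the resulting dose-response curve. At the GI50, growth is halved.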 The source made the active and inactive calls. Cut-off read from the data, not from the text of the source: active = GI50 up to about 1.1 µM and inactive = higher.

Key:
Assay in all cases: NCI-60 cell line screen, 48 h
786-0 = system: 786-0
A498 = system: A498
A549 = system: A549
ACHN = system: ACHN
BT-549 = system: BT-549
CAKI-1 = system: CAKI-1
CCRF-CEM = system: CCRF-CEM
COLO 205 = system: COLO 205
DU-145 = system: DU-145
EKVX = system: EKVX
HCC 2998 = system: HCC 2998
HCT-116 = system: HCT-116
HCT-15 = system: HCT-15
HL-60 = system: HL-60
HOP-62 = system: HOP-62
HOP-92 = system: HOP-92
HT-29 = system: HT-29
Hs-578T = system: Hs-578T
IGROV-1 = system: IGROV-1
K562 = system: K562
KM12 = system: KM12
LOX IMVI = system: LOX IMVI
M14 = system: M14
MCF7 = system: MCF7
MDA-MB-231 = system: MDA-MB-231
MDA-MB-435 = system: MDA-MB-435
MDA-N = system: MDA-N
MOLT-4 = system: MOLT-4
Malme-3M = system: Malme-3M
NCI-H226 = system: NCI-H226
NCI-H23 = system: NCI-H23
NCI-H460 = system: NCI-H460
NCI-H522 = system: NCI-H522
NCI/ADR-RES = system: NCI/ADR-RES
OVCAR-3 = system: OVCAR-3
OVCAR-4 = system: OVCAR-4
OVCAR-5 = system: OVCAR-5
OVCAR-8 = system: OVCAR-8
PC-3 = system: PC-3
RPMI-8226 = system: RPMI-8226
RXF 393 = system: RXF 393
SF-268 = system: SF-268
SF-295 = system: SF-295
SF-539 = system: SF-539
SK-MEL-28 = system: SK-MEL-28
SK-MEL-2 = system: SK-MEL-2
SK-MEL-5 = system: SK-MEL-5
SK-OV-3 = system: SK-OV-3
SN12C = system: SN12C
SNB-19 = system: SNB-19
SNB-75 = system: SNB-75
SR = system: SR
SW-620 = system: SW-620
T47D = system: T47D
TK-10 = system: TK-10
U-251 = system: U-251
UACC-257 = system: UACC-257
UO-31 = system: UO-31
UACC-62 = system: UACC-62

Measured: GI50

NS(=O)(=O)c1ccc(/N=N/c2ccc(O)cc2)cc1
59.2 µM: HCT-15
inactive: 786-0 > 100 µM | A498 > 100 µM | A549 28.3 µM | ACHN 31.8 µM | BT-549 10.5 µM | CAKI-1 20.9 µM | CCRF-CEM 62.1 µM | COLO 205 46.3 µM | DU-145 49.7 µM | EKVX 20.7 µM | HCC 2998 > 100 µM | HCT-116 37.3 µM | HL-60 30.1 µM | HOP-62 92 µM | HOP-92 75.3 µM | HT-29 50.2 µM | Hs-578T 61.8 µM | IGROV-1 70 µM | K562 7.46 µM | KM12 18.6 µM | LOX IMVI 6.61 µM | M14 33.2 µM | MCF7 39.4 µM | MDA-MB-231 64.3 µM | MDA-MB-435 11.3 µM | MDA-N 61.9 µM | MOLT-4 4.25 µM | Malme-3M > 100 µM | NCI-H226 19.3 µM | NCI-H23 55.6 µM | NCI-H460 31.1 µM | NCI-H522 33.7 µM | NCI/ADR-RES 26.8 µM | OVCAR-3 66.4 µM | OVCAR-4 43.4 µM | OVCAR-5 > 100 µM | OVCAR-8 45.3 µM | PC-3 66.7 µM | RPMI-8226 26.5 µM | RXF 393 > 100 µM | SF-268 53.6 µM | SF-295 29.9 µM | SF-539 31.9 µM | SK-MEL-28 21.4 µM | SK-MEL-2 32.7 µM | SK-MEL-5 28.8 µM | SK-OV-3 > 100 µM | SN12C 64 µM | SNB-19 83.2 µM | SNB-75 19.1 µM | SR 7.13 µM | SW-620 44.5 µM | T47D 31.3 µM | TK-10 > 100 µM | U-251 61 µM | UACC-257 51.2 µM | UO-31 12.6 µM

CCOC(=O)C1C(c2ccc(O)c(OC)c2)c2c(n[nH]c2O)CC1(C)O (stereo not drawn)
inactive: 786-0 > 100 µM | A498 > 100 µM | A549 > 100 µM | ACHN > 100 µM | CAKI-1 > 100 µM | CCRF-CEM > 100 µM | COLO 205 > 100 µM | DU-145 > 100 µM | EKVX > 100 µM | HCC 2998 > 100 µM | HCT-116 > 100 µM | HL-60 > 100 µM | HOP-62 > 100 µM | HOP-92 > 100 µM | HT-29 > 100 µM | Hs-578T > 100 µM | IGROV-1 > 100 µM | KM12 > 100 µM | LOX IMVI > 100 µM | M14 > 100 µM | MCF7 > 100 µM | MDA-MB-231 > 100 µM | MDA-MB-435 > 100 µM | MDA-N > 100 µM | MOLT-4 > 100 µM | Malme-3M > 100 µM | NCI-H23 > 100 µM | NCI-H460 > 10 µM | NCI-H522 > 100 µM | NCI/ADR-RES > 100 µM | OVCAR-3 > 100 µM | OVCAR-4 > 100 µM | OVCAR-5 > 100 µM | OVCAR-8 > 100 µM | PC-3 > 100 µM | RPMI-8226 > 100 µM | SF-268 > 100 µM | SF-295 > 100 µM | SF-539 > 100 µM | SK-MEL-28 > 100 µM | SK-MEL-2 > 100 µM | SK-MEL-5 > 100 µM | SN12C > 100 µM | SNB-19 > 100 µM | SNB-75 > 100 µM | SR > 100 µM | SW-620 > 100 µM | T47D > 100 µM | TK-10 > 100 µM | U-251 > 100 µM | UACC-257 > 100 µM | UACC-62 > 100 µM | UO-31 > 100 µM
active: BT-549 0.0159 µM
> 100 µM: HCT-15
